Measurements reported in patent US20220153746A1, “NITROGEN OXIDE-DONATING PDE-5 AND/OR PDE-6 INHIBITOR COMPOUNDS, AND USES THEREOF” (ILDONG PHARMACEUTICAL CO., LTD., priority 2020, published 2022).
Like-named read-outs stand apart in the source and are kept apart here.

What was measured:
[1] = molecular target: human PDE-6C (Homo sapiens, UniProt P51160); experiment: Human PDE-6C inhibition assay (fluorescence polarization, FAM-cGMP); format: biochemical
[2] = molecular target: human PDE-5A1 (Homo sapiens, UniProt O76074); experiment: Human PDE-5A1 inhibition assay (fluorescence polarization, FAM-cGMP); format: biochemical

Sequence of human PDE-6C (P51160 whole entry): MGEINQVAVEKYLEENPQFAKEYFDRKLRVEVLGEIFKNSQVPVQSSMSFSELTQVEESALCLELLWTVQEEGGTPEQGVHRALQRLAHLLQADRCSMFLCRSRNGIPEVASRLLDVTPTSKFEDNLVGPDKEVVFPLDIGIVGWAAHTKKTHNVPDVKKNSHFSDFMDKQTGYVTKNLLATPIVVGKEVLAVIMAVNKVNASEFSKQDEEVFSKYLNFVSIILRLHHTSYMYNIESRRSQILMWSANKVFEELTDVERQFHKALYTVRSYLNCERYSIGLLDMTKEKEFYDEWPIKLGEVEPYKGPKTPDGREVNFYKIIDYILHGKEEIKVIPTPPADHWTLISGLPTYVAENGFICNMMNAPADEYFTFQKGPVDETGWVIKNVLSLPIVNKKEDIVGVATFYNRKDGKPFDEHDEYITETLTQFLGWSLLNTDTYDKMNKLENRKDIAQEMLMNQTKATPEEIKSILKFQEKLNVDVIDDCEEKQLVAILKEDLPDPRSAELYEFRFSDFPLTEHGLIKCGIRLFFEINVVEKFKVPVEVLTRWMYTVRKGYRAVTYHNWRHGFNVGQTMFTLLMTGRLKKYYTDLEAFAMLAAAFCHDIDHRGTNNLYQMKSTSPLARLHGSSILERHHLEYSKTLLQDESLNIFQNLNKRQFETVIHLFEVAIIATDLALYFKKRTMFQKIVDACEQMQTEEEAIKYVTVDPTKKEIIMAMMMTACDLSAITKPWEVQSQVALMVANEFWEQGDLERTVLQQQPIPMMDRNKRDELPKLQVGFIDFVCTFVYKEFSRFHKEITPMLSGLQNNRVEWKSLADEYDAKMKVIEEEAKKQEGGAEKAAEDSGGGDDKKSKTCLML

IC50 ([1]; read-out: IC50 (μM) PDE6C) [µM]	IC50 ([2]; read-out: IC50 (μM) PDE5A1) [µM]	Compound	IC50 [1] [µM]	IC50 [2] [µM]
0.01 to 0.1	0.01 to 0.1	CCCc1nn(C)c2c(=O)[nH]c(-c3cc(S(=O)(=O)N4CC(NCCCCO)C4)ccc3OCC)nc12 [Compound 11, 5-(2-ethoxy-5-((3-((4-hydroxybutyl)amino)azetidin-1-yl)sulfonyl)phenyl)-1-methyl-3-propyl-1,6-dihydro-7H-pyrazolo[4,3-d]pyrimidin-7-one]	–	–
< 0.01	< 0.01	CCCc1nn(C)c2c(=O)[nH]c(-c3cc(S(=O)(=O)N4CC(N(C)CCO)C4)ccc3OCC)nc12 [Compound 12, 5-(2-ethoxy-5-((3-((2-hydroxyethyl)(methyl)amino)azetidin-1-yl)sulfonyl)phenyl)-1-methyl-3-propyl-1,6-dihydro-7H-pyrazolo[4,3-d]pyrimidin-7-one]	–	–
0.01 to 0.1	< 0.01	CCCc1nn(C)c2c(=O)[nH]c(-c3cc(S(=O)(=O)N4CC(N(C)CCCO)C4)ccc3OCC)nc12 [Compound 13, 5-(2-ethoxy-5-((3-((3-hydroxypropyl)(methyl)amino)azetidin-1-yl)sulfonyl)phenyl)-1-methyl-3-propyl-1,6-dihydro-7H-pyrazolo[4,3-d]pyrimidin-7-one]	–	–
< 0.01	< 0.01	CCCc1nn(C)c2c(=O)[nH]c(-c3cc(S(=O)(=O)N4CC(N(C)CCCCO)C4)ccc3OCC)nc12 [Compound 14, 5-(2-ethoxy-5-((3-((4-hydroxybutyl)(methyl)amino)azetidin-1-yl)sulfonyl)phenyl)-1-methyl-3-propyl-1,6-dihydro-7H-pyrazolo[4,3-d] pyrimidin-7-one]	–	–
0.01 to 0.1	0.01 to 0.1	CCCc1nn(C)c2c(=O)[nH]c(-c3cc(S(=O)(=O)N4CC(O[N+](=O)[O-])C4)ccc3OCC)nc12 [Compound 15, 1-((4-ethoxy-3-(1-methyl-7-oxo-3-propyl-6,7-dihydro-1H-pyrazolo[4,3-d]pyrimidin-5-yl)phenyl)sulfonyl) azetidin-3-yl nitrate]	–	–
0.01 to 0.1	< 0.01	CCCc1nn(C)c2c(=O)[nH]c(-c3cc(S(=O)(=O)N4CC(CO[N+](=O)[O-])C4)ccc3OCC)nc12 [Compound 16, (1-((4-ethoxy-3-(1-methyl-7-oxo-3-propyl-6,7-dihydro-1H-pyrazolo[4,3-d]pyrimidin-5-yl)phenyl)sulfonyl)azetidin-3-yl)methyl nitrate]	–	–
< 0.01	< 0.01	CCCc1nn(C)c2c(=O)[nH]c(-c3cc(S(=O)(=O)NC4CN(CCO[N+](=O)[O-])C4)ccc3OCC)nc12 [Compound 19, 2-(3-((4-ethoxy-3-(1-methyl-7-oxo-3-propyl-6,7-dihydro-1H-pyrazolo[4,3-d]pyrimidin-5-yl)phenyl)sulfonamido)azetidin-1-yl)ethyl nitrate]	–	–
< 0.01	0.01 to 0.1	CCCc1nn(C)c2c(=O)[nH]c(-c3cc(S(=O)(=O)NC4CN(CCCO[N+](=O)[O-])C4)ccc3OCC)nc12 [Compound 20, 3-(3-((4-ethoxy-3-(1-methyl-7-oxo-3-propyl-6,7-dihydro-1H-pyrazolo[4,3-d]pyrimidin-5-yl)phenyl)sulfonamido)azetidin-1-yl)propyl nitrate]	–	–
< 0.01	< 0.01	CCCc1nn(C)c2c(=O)[nH]c(-c3cc(S(=O)(=O)N4CC(NCCO[N+](=O)[O-])C4)ccc3OCC)nc12 [Compound 21, 2-((1-((4-ethoxy-3-(1-methyl-7-oxo-3-propyl-6,7-dihydro-1H-pyrazolo[4,3-d]pyrimidin-5-yl)phenyl)sulfonyl)azetidin-3-yl)amino)ethyl nitrate]	–	–
< 0.01	< 0.01	CCCc1nn(C)c2c(=O)[nH]c(-c3cc(S(=O)(=O)N4CC(N(C)CCO[N+](=O)[O-])C4)ccc3OCC)nc12 [Compound 23, 2-((1-((4-ethoxy-3-(1-methyl-7-oxo-3-propyl-6,7-dihydro-1H-pyrazolo[4,3-d]pyrimidin-5-yl)phenyl)sulfonyl)azetidin-3-yl)(methyl)amino)ethyl nitrate]	–	–
< 0.01	0.01 to 0.1	CCCc1nn(C)c2c(=O)[nH]c(-c3cc(S(=O)(=O)N4CC(N(C)CCCO[N+](=O)[O-])C4)ccc3OCC)nc12 [Compound 24, 3-((1-((4-ethoxy-3-(1-methyl-7-oxo-3-propyl-6,7-dihydro-1H-pyrazolo[4,3-d]pyrimidin-5-yl)phenyl)sulfonyl)azetidin-3-yl)(methyl)amino)propyl nitrate]	–	–
0.01 to 0.1	0.01 to 0.1	CCCc1nn(C)c2c(=O)[nH]c(-c3cc(S(=O)(=O)N4CC(OCCO)C4)ccc3OCC)nc12 [Compound 25, 5-(2-ethoxy-5-((3-(2-hydroxyethoxy)azetidin-1-yl)sulfonyl)phenyl)-1-methyl-3-propyl-1,6-dihydro-7H-pyrazolo[4,3-d] pyrimidin-7-one]	–	–
0.01 to 0.1	0.01 to 0.1	CCCc1nn(C)c2c(=O)[nH]c(-c3cc(S(=O)(=O)N4CC(OCCCO)C4)ccc3OCC)nc12 [Compound 26, 5-(2-ethoxy-5-((3-(3-hydroxypropoxy)azetidin-1-yl)sulfonyl)phenyl)-1-methyl-3-propyl-1,6-dihydro-7H-pyrazolo[4,3-d]pyrimidin-7-one]	–	–
0.01 to 0.1	0.01 to 0.1	CCCc1nn(C)c2c(=O)[nH]c(-c3cc(S(=O)(=O)N4CC(CN5CC(CO)C5)C4)ccc3OCC)nc12 [Compound 28, 5-(2-ethoxy-5-((3-((3-(hydroxymethyl)azetidin-1-yl)methyl)azetidin-1-yl)sulfonyl)phenyl)-1-methyl-3-propyl-1,6-dihydro-7H-pyrazolo[4,3-d] pyrimidin-7-one]	–	–
0.01 to 0.1	0.01 to 0.1	CCCc1nn(C)c2c(=O)[nH]c(-c3cc(S(=O)(=O)N4CC(CN5CC(CCO)C5)C4)ccc3OCC)nc12 [Compound 29, 5-(2-ethoxy-5-((3-((3-(2-hydroxyethyl)azetidin-1-yl)methyl)azetidin-1-yl)sulfonyl)phenyl)-1-methyl-3-propyl-1,6-dihydro-7H-pyrazolo[4,3-d]pyrimidin-7-one]	–	–
< 0.01	< 0.01	CCCc1nn(C)c2c(=O)[nH]c(-c3cc(S(=O)(=O)N4CC(N(CCCO)CCCO)C4)ccc3OCC)nc12 [Compound 30, 5-(5-((3-(bis(3-hydroxypropyl)amino)azetidin-1-yl)sulfonyl)-2-ethoxyphenyl)-1-methyl-3-propyl-1,6-dihydro-7H-pyrazolo[4,3-d]pyrimidin-7-one]	–	–
< 0.01	0.01 to 0.1	CCCc1nn(C)c2c(=O)[nH]c(-c3cc(S(=O)(=O)N4CC(N5CC(O)C5)C4)ccc3OCC)nc12 [Compound 31, 5-(2-ethoxy-5-((3-hydroxy-[1,3′-biazetidin]-1′-yl)sulfonyl)phenyl)-1-methyl-3-propyl-1,6-dihydro-7H-pyrazolo [4,3-d]pyrimidin-7-one]	–	–
0.01 to 0.1	< 0.01	CCCc1nn(C)c2c(=O)[nH]c(-c3cc(S(=O)(=O)N4CC(N5CC(CO)C5)C4)ccc3OCC)nc12 [Compound 32, 5-(2-ethoxy-5-((3-(hydroxymethyl)-[1,3′-biazetidin]-1′-yl)sulfonyl)phenyl)-1-methyl-3-propyl-1,6-dihydro-7H-pyrazolo[4,3-d]pyrimidin-7-one]	–	–
< 0.01	< 0.01	CCCc1nn(C)c2c(=O)[nH]c(-c3cc(S(=O)(=O)N4CC(N5CC(CCO)C5)C4)ccc3OCC)nc12 [Compound 33, 5-(2-ethoxy-5-((3-(2-hydroxyethyl)-[1,3′-biazetidin]-1′-yl)sulfonyl)phenyl)-1-methyl-3-propyl-1,6-dihydro-7H-pyrazolo[4,3-d]pyrimidin-7-one]	–	–
< 0.01	0.01 to 0.1	CCCc1nn(C)c2c(=O)[nH]c(-c3cc(S(=O)(=O)N4CC(OCCO[N+](=O)[O-])C4)ccc3OCC)nc12 [Compound 34, 2-((1-((4-ethoxy-3-(1-methyl-7-oxo-3-propyl-6,7-dihydro-1H-pyrazolo[4,3-d]pyrimidin-5-yl)phenyl)sulfonyl)azetidin-3-yl)oxy)ethyl nitrate]	–	–
< 0.01	0.01 to 0.1	CCCc1nn(C)c2c(=O)[nH]c(-c3cc(S(=O)(=O)N4CC(OCCCO[N+](=O)[O-])C4)ccc3OCC)nc12 [Compound 35, 3-((1-((4-ethoxy-3-(1-methyl-7-oxo-3-propyl-6,7-dihydro-1H-pyrazolo[4,3-d]pyrimidin-5-yl)phenyl)sulfonyl)azetidin-3-yl)oxy)propyl nitrate]	–	–
0.01 to 0.1	0.01 to 0.1	CCCc1nn(C)c2c(=O)[nH]c(-c3cc(S(=O)(=O)N4CC(OCCCCO[N+](=O)[O-])C4)ccc3OCC)nc12 [Compound 36, 4-((1-((4-ethoxy-3-(1-methyl-7-oxo-3-propyl-6,7-dihydro-1H-pyrazolo[4,3-d]pyrimidin-5-yl)phenyl)sulfonyl)azetidin-3-yl)oxy)butyl nitrate]	–	–
0.01 to 0.1	0.01 to 0.1	CCCc1nn(C)c2c(=O)[nH]c(-c3cc(S(=O)(=O)N4CC(CN5CC(CO[N+](=O)[O-])C5)C4)ccc3OCC)nc12 [Compound 37, (1-((1-((4-ethoxy-3-(1-methyl-7-oxo-3-propyl-6,7-dihydro-1H-pyrazolo[4,3-d]pyrimidin-5-yl)phenyl)sulfonyl)azetidin-3-yl)methyl)azetidin-3-yl)methyl nitrate]	–	–
–	–	CCCc1nn(C)c2c(=O)[nH]c(-c3cc(S(=O)(=O)N4CC(N(CCCO[N+](=O)[O-])CCCO[N+](=O)[O-])C4)ccc3OCC)nc12 [Compound 38, ((1-((4-ethoxy-3-(1-methyl-7-oxo-3-propyl-6,7-dihydro-1H-pyrazolo[4,3-d]pyrimidin-5-yl)phenyl)sulfonyl)azetidin-3-yl)azanediyl)bis(propane-3,1-diyl) dinitrate]	0.01 to 0.1	0.01 to 0.1

Compound	IC50 ([1]; read-out: IC50 (μM) PDE6C) [µM]	IC50 ([2]; read-out: IC50 (μM) PDE5A1) [µM]	IC50 [1] [µM]	IC50 [2] [µM]
CCCc1nn(C)c2c(=O)[nH]c(-c3cc(S(=O)(=O)N4CC(OCCCCO)C4)ccc3OCC)nc12 [Compound 27, 5-(2-ethoxy-5-((3-(4-hydroxybutoxy)azetidin-1-yl)sulfonyl)phenyl)-1-methyl-3-propyl-1,6-dihydro-7H-pyrazolo[4,3-d]pyrimidin-7-one]	< 0.01	0.01 to 0.1	–	–
